Active and inactive are the calls of the source. No cut-off for these calls is given here.
Columns and labels:
[1] = target: Protein cereblon/DNA damage-binding protein 1 (Homo sapiens, UniProt Q96SW2); test: Displacement of Cy5-labeled tracer CC0782985 from 6His-tagged CRBN (1 to 442 residues)/DDB1 (1 to 1140 residues) (unknown origin) incubated for 20 mins by TR-FRET assay; type: protein assay
[2] = target: Zinc finger protein Aiolos (Homo sapiens, UniProt Q9UKT9); test: Induction of ePL tagged Aiolos degradation in human DF15 cells incubated for 4 hrs by luminescence based assay; type: cell-based
[3] = target: T1, Eukaryotic peptide chain release factor GTP-binding subunit ERF3A (Homo sapiens, UniProt P15170); test: Induction of ePL tagged GSPT1 degradation in human DF15 cells incubated for 20 hrs by luminescence based assay; type: cell-based
[4] = target: T1, Eukaryotic peptide chain release factor GTP-binding subunit ERF3A; test: Induction of ePL tagged GSPT1 degradation in human DF15 cells assessed as remaining activity incubated for 20 hrs by luminescence based assay relative to control; type: cell-based; parameters: concentration or dose not given beside the values
[5] = target: T2, Androgen receptor (Homo sapiens) (UniProt P10275); test: Induction of androgen receptor degradation in human VCaP cells incubated for 24 hrs by ELISA; type: cell-based
T2 sequence (whole entry): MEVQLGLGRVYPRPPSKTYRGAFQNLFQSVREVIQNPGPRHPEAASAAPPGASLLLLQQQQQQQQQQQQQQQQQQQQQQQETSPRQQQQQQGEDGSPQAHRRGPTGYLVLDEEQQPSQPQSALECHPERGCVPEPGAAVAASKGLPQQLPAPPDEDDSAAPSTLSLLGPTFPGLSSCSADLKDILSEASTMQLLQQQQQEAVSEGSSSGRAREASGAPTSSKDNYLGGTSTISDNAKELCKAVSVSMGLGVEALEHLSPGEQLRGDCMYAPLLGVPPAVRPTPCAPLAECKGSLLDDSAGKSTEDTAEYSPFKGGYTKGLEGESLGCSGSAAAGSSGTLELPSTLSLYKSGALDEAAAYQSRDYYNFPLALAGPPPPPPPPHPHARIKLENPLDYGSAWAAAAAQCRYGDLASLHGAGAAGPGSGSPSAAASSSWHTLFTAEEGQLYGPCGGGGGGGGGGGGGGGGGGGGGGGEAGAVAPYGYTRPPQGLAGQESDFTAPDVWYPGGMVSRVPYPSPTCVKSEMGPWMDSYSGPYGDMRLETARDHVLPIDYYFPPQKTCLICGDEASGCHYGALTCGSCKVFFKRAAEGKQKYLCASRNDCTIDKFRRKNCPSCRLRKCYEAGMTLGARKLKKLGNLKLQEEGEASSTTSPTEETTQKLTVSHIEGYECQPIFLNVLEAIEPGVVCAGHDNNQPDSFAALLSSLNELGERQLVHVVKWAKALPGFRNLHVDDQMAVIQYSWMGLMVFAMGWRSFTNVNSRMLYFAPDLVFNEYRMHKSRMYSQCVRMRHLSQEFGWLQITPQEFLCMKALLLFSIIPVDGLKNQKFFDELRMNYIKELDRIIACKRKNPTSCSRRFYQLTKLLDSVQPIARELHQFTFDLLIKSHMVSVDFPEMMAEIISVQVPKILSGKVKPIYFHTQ

[6] = target: T1, Eukaryotic peptide chain release factor GTP-binding subunit ERF3A; test: Induction of ePL tagged GSPT1 degradation in human DF15 cells incubated for 20 hrs by luminescence based assay relative to control; type: cell-based

Compound | EC50 [2] [µM] | EC50 [3] [µM] | Activity [4] [%] | Activity [5] | Activity [6] [%] | IC50 [1] [µM]
Cn1nc(N2CCC(=O)NC2=O)c2ccccc21 | > 10 |  |  |  |  | 6.7
Cc1ccc(NC(=O)NCc2ccc(C(=O)NC3CCC(=O)NC3=O)cc2)cc1Cl (stereo unspecified) | > 10 | 0.1 | 33.7 |  |  | 3.4
Cc1ccc(NC(=O)NCc2cccc(C3CCC(=O)NC3=O)c2)cc1Cl (stereo unspecified) | > 10 | > 10 | 92.8 |  |  | 1.5
Nc1ccc(C(=O)NC2CCC(=O)NC2=O)cc1 (stereo unspecified) | 0.607 |  |  |  |  | 5.5
O=C1CCC(c2ccccc2)C(=O)N1 (stereo unspecified) | > 10 |  |  |  |  | 
O=C1CC[C@H](N2Cc3c(OCc4ccc(CN5CCOCC5)cc4)cccc3C2=O)C(=O)N1 [IBERDOMIDE] | 0.001 | > 10 | 88.8 |  |  | 
O=C1CCC(Oc2ccccc2)C(=O)N1 (stereo unspecified) | > 10 |  |  |  |  | 7
Nc1ccc(NC2CCC(=O)NC2=O)cc1 (stereo unspecified) | > 10 |  |  |  |  | 12.4
O=C1CCC(NC(=O)c2ccccc2)C(=O)N1 (stereo unspecified) | > 10 |  |  |  |  | 11.1
Cn1nc(C2CCC(=O)NC2=O)c2cccc(N)c21 (stereo unspecified) | > 10 |  |  |  |  | 0.19
Cc1ccc(NC(=O)NCc2ccccc2C(=O)NC2CCC(=O)NC2=O)cc1Cl (stereo unspecified) | > 10 | > 10 | 88.4 |  |  | 10.3
Nc1ccc2c(c1)ncn2C1CCC(=O)NC1=O (stereo unspecified) | 0.312 |  |  |  |  | 0.59
Nc1cccc(N[C@@H]2CCC(=O)NC2=O)c1 | > 10 |  |  |  |  | 2.9
COc1cccc(C2CCC(=O)NC2=O)c1 (stereo unspecified) | > 10 |  |  |  |  | 1.7
Nc1cccc(NC2CCC(=O)NC2=O)c1 (stereo unspecified) | > 10 |  |  |  |  | 3.7
Nc1cccc(N2CCC(=O)NC2=O)c1 | > 10 |  |  | inactive |  | 11.7
Cn1nc(C2CCC(=O)NC2=O)c2ccc(N)cc21 (stereo unspecified) | > 10 |  |  |  |  | 0.1
Nc1ccc(C2CCC(=O)NC2=O)cc1 (stereo unspecified) | > 10 |  |  | Active |  | 1.2
Cc1ccc(NC(=O)NCc2cccc(N3CCC(=O)NC3=O)c2)cc1Cl | > 10 | > 10 | 95.2 |  |  | 8.6

Further lines, with some results ahead:

EC50 [2] [µM] | EC50 [3] [µM] | Activity [4] [%] | Activity [5] | Activity [6] [%] | Compound | IC50 [1] [µM]
> 10 | > 10 | 93.8 |  |  | Cc1ccc(NC(=O)NCc2ccc(N3CCC(=O)NC3=O)cc2)cc1Cl | 4.7
0.005 | 0.0003 | 3.9 |  |  | Cc1ccc(NC(=O)NCc2ccc3c(c2)CN(C2CCC(=O)NC2=O)C3=O)cc1Cl (stereo unspecified) | 0.03
> 10 |  |  |  |  | Nc1cccc2c1ncn2C1CCC(=O)NC1=O (stereo unspecified) | 0.81
0.142 |  |  |  |  | Nc1ccc2ncn(C3CCC(=O)NC3=O)c2c1 (stereo unspecified) | 0.74
0.07 | > 10 | 99 |  |  | O=C1CCC(n2cnc3ccc(OCc4ccc(CN5CCOCC5)cc4)cc32)C(=O)N1 (stereo unspecified) | 0.28
> 10 |  |  |  |  | O=C1CCC(Nc2ccccc2)C(=O)N1 (stereo unspecified) | 5.6
> 10 |  |  | Active |  | Nc1cccc(C2CCC(=O)NC2=O)c1 (stereo unspecified) | 2.3
> 10 |  |  |  |  | COc1ccc(C2CCC(=O)NC2=O)cc1 (stereo unspecified) | 2.2
> 10 |  |  |  |  | Nc1cccc2c1cnn2C1CCC(=O)NC1=O (stereo unspecified) | 0.34
> 10 | > 10 | 97.1 |  |  | O=C1CCC(c2ccc(OCc3ccc(CN4CCOCC4)cc3)cc2)C(=O)N1 (stereo unspecified) | 1.9
> 10 | 0.07 | 73.4 |  | 26 | Cc1ccc(NC(=O)NCc2ccc(C3CCC(=O)NC3=O)cc2)cc1Cl (stereo unspecified) | 0.29
> 10 |  |  |  |  | O=C1CCN(c2ccccc2)C(=O)N1 | 
> 10 |  |  |  |  | Nc1cccc(C(=O)NC2CCC(=O)NC2=O)c1 (stereo unspecified) | 25.8
> 10 |  |  |  |  | O=c1ccn(-c2ccccc2)c(=O)[nH]1 | > 100
0.02 |  |  |  |  | Nc1cccc2c1C(=O)N(C1CCC(=O)NC1=O)C2=O (stereo unspecified) [POMALIDOMIDE] | 
> 10 | > 10 | 94 |  |  | O=C1CCN(c2cccc(OCc3ccc(CN4CCOCC4)cc3)c2)C(=O)N1 | 3.3
> 10 |  |  |  |  | Nc1cccc(N[C@H]2CCC(=O)NC2=O)c1 | 1.4
> 10 |  |  |  |  | Cn1nc(N2CCC(=O)NC2=O)c2ccc(N)cc21 | 2.3
> 10 |  |  |  |  | O=C1CCC(n2ncc3ccccc32)C(=O)N1 (stereo unspecified) | 
> 10 |  |  |  |  | Cn1nc(N2CCC(=O)NC2=O)c2cccc(N)c21 | 12.2
> 10 |  |  |  |  | Cn1nc(C2CCC(=O)NC2=O)c2ccccc21 (stereo unspecified) | 0.15
> 10 | > 10 | 96.6 |  |  | O=C1CCC(c2cccc(OCc3ccc(CN4CCOCC4)cc3)c2)C(=O)N1 (stereo unspecified) | 0.58
> 10 |  |  | inactive |  | Nc1ccc(N2CCC(=O)NC2=O)cc1 | 23.6
> 10 | 0.021 | 3.1 |  |  | Cc1ccc(NC(=O)NCc2cccc(C(=O)NC3CCC(=O)NC3=O)c2)cc1Cl (stereo unspecified) | 3.8
> 10 | > 10 | 97.1 |  |  | O=C1CCN(c2ccc(OCc3ccc(CN4CCOCC4)cc3)cc2)C(=O)N1 | 8

Reference: ChEMBL document CHEMBL5375960, “Design and Synthesis of Novel Cereblon Binders for Use in Targeted Protein Degradation” (J Med Chem, 2023)
